Drawing on PubChem BioAssay (NCI), this text covers TGI and GI50 for 13 compounds.

Some test systems named below: M14 melanoma; MOLT-4 leukemia; OVCAR-4 ovarian; SK-MEL-2 melanoma; KM12 colon; U251 CNS; NCI-H23 lung; NCI-H460 lung; HCC-2998 colon; TK-10 renal.
What all share (test): NCI-60 cell line screen, 48 h

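The compound was tested at five concentrations on cells cultured in 96-well plates, with a 48-hour exposure period. The concentration for 50% growth inhibition is given as GI50. At the TGI there is no net growth.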 Some results are limits rather than exact numbers.

In the case of `COc1cc(O)c2c(c1)C(=O)c1cc(C)cc(O)c1C2=O`, the TGI in the assay on M14 melanoma, in the assay with MOLT-4 leukemia, in the assay with OVCAR-4 ovarian, with SK-MEL-2 melanoma, in the assay on KM12 colon and in the assay on U251 CNS was over 100 µM each time. Besides, the TGI in the assay with NCI-H23 lung, in the assay with NCI-H460 lung and in the assay on HCC-2998 colon was over 100 µM each time.

In the case of `Cn1c(Sc2ccc(-c3cccnc3)n2C)ccc1-c1cccnc1`, the TGI with M14 melanoma came out at 37 µM; in the assay with MOLT-4 leukemia, 7.78 µM; with OVCAR-4 ovarian it was 36.6 µM; in the assay on SK-MEL-2 melanoma, 30.1 µM; in the assay with KM12 colon, 33.6 µM; in the assay with U251 CNS, 26.9 µM. For the same compound, the TGI in the assay on NCI-H23 lung was 34.8 µM; in the assay on NCI-H460 lung, 31.1 µM; in the assay with TK-10 renal, 32.4 µM; in the assay on HCC-2998 colon, 34.7 µM.

With `Cc1cc(=O)oc2c1cc(OCC(=O)OCCN1CCCCC1)c1occ(C)c12`, the TGI in the assay on M14 melanoma, in the assay with MOLT-4 leukemia, in the assay on OVCAR-4 ovarian, with SK-MEL-2 melanoma, in the assay on KM12 colon and in the assay with U251 CNS was over 100 µM each time. Besides, the TGI in the assay with NCI-H23 lung, in the assay on NCI-H460 lung, in the assay with TK-10 renal and in the assay on HCC-2998 colon was over 100 µM each time.

With `NC(=O)Nc1cc(O)ccc1N=Nc1ccc(S(=O)(=O)Nc2ccccn2)cc1`, the TGI with M14 melanoma, in the assay with MOLT-4 leukemia, with OVCAR-4 ovarian, in the assay with SK-MEL-2 melanoma, in the assay with KM12 colon and with U251 CNS was over 100 µM throughout. Moreover, the TGI with NCI-H23 lung, in the assay on NCI-H460 lung, with TK-10 renal and in the assay with HCC-2998 colon was over 100 µM throughout.

`CC(CO)(CO)Nc1ncnc2ccccc12`: the TGI in the assay on M14 melanoma, in the assay on MOLT-4 leukemia, with OVCAR-4 ovarian, with SK-MEL-2 melanoma, in the assay with KM12 colon and in the assay on U251 CNS was over 100 µM each time. Further, the TGI in the assay with NCI-H23 lung, in the assay with NCI-H460 lung, with TK-10 renal and with HCC-2998 colon was over 100 µM in each case.

In the case of `CCOC(=O)NC`, the TGI in the assay on M14 melanoma, in the assay with OVCAR-4 ovarian, in the assay on SK-MEL-2 melanoma, in the assay on KM12 colon, in the assay on U251 CNS and in the assay on NCI-H23 lung was over 100 µM throughout. The TGI in the assay with NCI-H460 lung, in the assay with TK-10 renal and in the assay with HCC-2998 colon was over 100 µM in each case.

Take `Nc1nnc(N)n1NC(=O)C(=O)Nc1ccc([N+](=O)[O-])cc1`: the TGI in the assay on MOLT-4 leukemia, with OVCAR-4 ovarian, in the assay with SK-MEL-2 melanoma, in the assay with KM12 colon, with U251 CNS and with NCI-H23 lung was over 100 µM in each case. Besides, the TGI in the assay on NCI-H460 lung, with TK-10 renal and in the assay with HCC-2998 colon was over 100 µM each time.

As to `c1ccc2sc(SCN(C3CCCCC3)C3CCCCC3)nc2c1`, the TGI in the assay with M14 melanoma, in the assay with MOLT-4 leukemia, in the assay on OVCAR-4 ovarian, in the assay on SK-MEL-2 melanoma, in the assay with KM12 colon and in the assay on U251 CNS was over 100 µM in each case. For the same compound, the TGI in the assay with NCI-H23 lung, in the assay on NCI-H460 lung, with TK-10 renal and in the assay on HCC-2998 colon was over 100 µM throughout.

Take `O=C(O)C1=NNC(C(=O)O)=NN1`: the TGI in the assay on M14 melanoma, in the assay with MOLT-4 leukemia, in the assay on OVCAR-4 ovarian, with SK-MEL-2 melanoma, with KM12 colon and in the assay with U251 CNS was over 100 µM each time. Further, the TGI with NCI-H23 lung, with NCI-H460 lung and in the assay with TK-10 renal was over 100 µM throughout.

In the case of `CCCCCCCCCCCCCCCCOCC(COP(=O)([O-])OCC[n+]1ccc(N(C)C)cc1)OCC` (centres undefined), the TGI turned out to be 26.7 µM in the assay on M14 melanoma; 18.4 µM with MOLT-4 leukemia; 29.3 µM with OVCAR-4 ovarian; 27 µM in the assay on SK-MEL-2 melanoma; 3.86 µM with KM12 colon; 25.6 µM in the assay on U251 CNS. The TGI stood at 35.9 µM in the assay on NCI-H23 lung, 25.4 µM in the assay with NCI-H460 lung, 28.9 µM in the assay on TK-10 renal and 27.6 µM with HCC-2998 colon.

As to `COc1c(Cl)cc(S(=O)O)cc1Cl`, the TGI with M14 melanoma, in the assay on MOLT-4 leukemia, in the assay with OVCAR-4 ovarian, with SK-MEL-2 melanoma, in the assay with KM12 colon and in the assay on U251 CNS was over 100 µM each time. Moreover, the TGI with NCI-H23 lung, with NCI-H460 lung, in the assay with TK-10 renal and in the assay with HCC-2998 colon was over 100 µM throughout.

For the compound `Fc1ccc(-c2nnc3sc(COc4ccccc4Cl)nn23)cc1Cl`, the GI50 in the assay on M14 melanoma is 34.9 µM; with MOLT-4 leukemia, 24.5 µM; in the assay on OVCAR-4 ovarian it was 28.2 µM; in the assay with SK-MEL-2 melanoma, 51.8 µM; in the assay with KM12 colon it was 77.1 µM; in the assay on U251 CNS it was 24.9 µM. The GI50 was 33.4 µM in the assay with NCI-H23 lung, over 100 µM in the assay on TK-10 renal and over 100 µM in the assay with HCC-2998 colon. Further, the TGI is over 100 µM with M14 melanoma; over 100 µM in the assay on MOLT-4 leukemia; 78.4 µM in the assay on OVCAR-4 ovarian; over 100 µM with SK-MEL-2 melanoma; over 100 µM in the assay with KM12 colon; 67.2 µM with U251 CNS. In addition, the TGI in the assay on NCI-H23 lung, in the assay with TK-10 renal and in the assay on HCC-2998 colon was over 100 µM throughout.

`O=C1c2ccccc2C(=O)c2c1ccc(C(=O)O)c2-c1ccc2ccccc2c1`: the TGI is 54.1 µM in the assay with M14 melanoma; 53 µM in the assay on MOLT-4 leukemia; over 100 µM in the assay with OVCAR-4 ovarian; 48.5 µM with SK-MEL-2 melanoma; over 100 µM with KM12 colon; 55.4 µM in the assay on U251 CNS. Moreover, the TGI is 46.5 µM in the assay with NCI-H23 lung, over 100 µM in the assay with NCI-H460 lung, over 100 µM in the assay with TK-10 renal and over 100 µM with HCC-2998 colon.
